According to ChEMBL document CHEMBL5137017, “Identification of NVP-CLR457 as an Orally Bioavailable Non-CNS-Penetrant pan-Class IA Phosphoinositol-3-Kinase Inhibitor” (J Med Chem, 2022):

What was measured:
[1] = cells; details: Rattus norvegicus, Rat1, 1 h
[2] = Brain to blood ratio in OF1 mouse at 1 mg/kg, iv measured at 1 hr post dose by LC-MS/MS analysis; type: ADME, organism-based; details: brain and blood, read-out: BBR
[3] = Brain to blood ratio in OF1 mouse at 1 mg/kg, iv measured at 5 mins post dose by LC-MS/MS analysis; type: ADME, organism-based; details: brain and blood, read-out: BBR
[4] = Volume of distribution at steady state in Sprague-Dawley rat at 3 mg/kg, po or iv measured upto 24 hrs by LC-MS/MS analysis; type: ADME, organism-based; details: in vivo
[5] = Oral bioavailability in Sprague-Dawley rat at 3 mg/kg measured for 0.25 to 24 hrs by LC-MS/MS analysis; type: ADME, organism-based; details: in vivo, time 0.25-24 hrs
[6] = Stability in rat liver microsomes assessed as hepatic extraction preincubated for 3 mins followed by NADPH addition and measured after 60 mins; type: ADME, Microsome; details: read-out: ERH
[7] = target: T1, Serine/threonine-protein kinase mTOR (Homo sapiens, UniProt P42345); assay: Displacement of Alexa Fluor labelled Tracer-314 from human N-terminal GST-tagged mTOR incubated for 1 hr by TR-FRET assay
[8] = Half life in Sprague-Dawley rat at 3 mg/kg, po or iv measured upto 24 hrs by LC-MS/MS analysis; type: ADME, organism-based; details: in vivo
[9] = Stability in human liver microsomes assessed as hepatic extraction preincubated for 3 mins followed by NADPH addition and measured after 60 mins; type: ADME, Microsome; details: read-out: ERH
[10] = AUC in Sprague-Dawley rat at 1 mg/kg, iv measured for 0.083 to 48 hrs by LC-MS/MS analysis; type: ADME, organism-based; design: time upper 48 hrs, dose 1 mg/kg, time lower 0.083 hrs, route iv; details: in vivo
[11] = 1-octanol, logP of the compound at pH 7.4; type: physicochemical
[12] = target: T2, Tubulin (Homo sapiens) (UniProt P68371+Q9H4B7+P0DPH7+P68366+Q13509+Q71U36+P04350+Q3ZCM7+P07437+P68363+Q9BQE3+Q6PEY2+Q13885+Q9BVA1+Q9BUF5); assay: Binding affinity to tubulin in human A2058 cells assessed as condensed DNA score at 5 uM measured after 24 hrs by DiffQuick staining based microscopic analysis; type: cell-based
[13] = target: T2, Tubulin (Homo sapiens); assay: Binding affinity to tubulin in human A2058 cells assessed as condensed DNA score at 5 uM measured after 6 hrs by DiffQuick staining based microscopic analysis; type: cell-based
[14] = target: T1, Serine/threonine-protein kinase mTOR; assay: Binding affinity to human N-terminal GST-tagged mTOR assessed as phosphorylated 4EBP1 by TR-FRET assay

Row | SMILES | IC50 [1] [µM] | IC50 [7] [µM] | also measured
1 | CC1(C)OC(=O)N(c2nc(-c3cnc(N)nc3C(F)(F)F)cc(N3CCOCC3)n2)[C@H]1CO | 0.081 | – | –
2 | N#Cc1cc(N)ncc1-c1cc(N2CCOC(CCO)C2)nc(N2CCOCC2)n1 (racemic) | 2.52 | – | Kp at 1 h [2]: 0.12; Kp at 5 min [3]: 0.2
3 | C[C@@H]1OC(=O)N(c2nc(-c3cnc(N)nc3C(F)(F)F)cc(N3CCOCC3)n2)[C@H]1CO | 0.037 | 2.58 | Vdss [4]: 3.9 L/kg; bioavailability [5]: 23%; hepatic extraction ratio at 1 h [6]: 0.49; half-life [8]: 5.2 h; hepatic extraction ratio at 1 h [9]: 0.78; AUC [10]: 0.708 µM·h
4 | C[C@H](O)[C@@H]1COC(=O)N1c1nc(-c2cnc(N)nc2C(F)(F)F)cc(N2CCOCC2)n1 | 0.083 | 1.34 | –
5 | Nc1cc(C(F)(F)F)c(-c2cc(N3CCOC[C@H]3CO)nc(N3CCOCC3)n2)cn1 | 8.02 | – | Kp at 1 h [2]: 0.21; Kp at 5 min [3]: 0.31
6 | Nc1cc(C(F)(F)F)c(-c2cc(N3CCOC3=O)nc(N3CCOCC3)n2)cn1 | 1.07 | 6.8 | logD [11]: 2.7
7 | C[C@H]1OC(=O)N(c2nc(-c3cnc(N)nc3C(F)(F)F)cc(N3CCOCC3)n2)[C@H]1CC#N | 0.1 | 3.94 | –
8 | Nc1cc(C(F)(F)F)c(-c2cc(N3CCCC3=O)nc(N3CCOCC3)n2)cn1 | 0.267 | 4.97 | logD [11]: 2.1
9 | Nc1ncc(-c2cc(N3CCOCC3)nc(N3C[C@@H](CO)OC3=O)n2)c(C(F)(F)F)n1 | 0.101 | > 9.1 | –
10 | C[C@H]1OC(=O)N(c2nc(-c3cnc(N)nc3C(F)(F)F)cc(N3CCOCC3)n2)[C@H]1CN1CC[S+]([O-])CC1 | > 10 | – | –
11 | Nc1ncc(-c2cc(N3CCCOC3=O)nc(N3CCOCC3)n2)c(C(F)(F)F)n1 | 0.152 | – | –
12 | Nc1ncc(-c2cc(N3CCOCC3)nc(N3C(=O)OC[C@@H]3CO)n2)c(C(F)(F)F)n1 | 0.063 | 3.88 | –
13 | CNC(=O)N(CCO)c1cc(-c2cnc(N)cc2C(F)(F)F)nc(N2CCOCC2)n1 | 3.66 | – | Kp at 1 h [2]: 0.12; Kp at 5 min [3]: 0.23
14 | CNC(=O)N(C)c1cc(-c2cnc(N)cc2C(F)(F)F)nc(N2CCOCC2)n1 | 1.3 | – | Kp at 1 h [2]: 0.86; Kp at 5 min [3]: 1.1
15 | Nc1cc(C(F)(F)F)c(-c2cc(N3CCOC(c4ccccc4)C3)nc(N3CCOCC3)n2)cn1 (racemic) | 2.77 | – | Kp at 1 h [2]: 3.73; Kp at 5 min [3]: 4.89
16 | Nc1ncc(-c2cc(N3CCOCC3)nc(N3CCOCC3)n2)c(C(F)(F)F)n1 | 0.191 | 2.07 | Activity [12]: > 12%; Activity [13]: > 12%; IC50 [14]: 6.31 µM
17 | Nc1cc(C(F)(F)F)c(-c2cc(N3CCCCC3=O)nc(N3CCOCC3)n2)cn1 | 1.04 | 5.06 | Activity [12]: < 2%; Activity [13]: < 2%
18 | Nc1cc(C(F)(F)F)c(-c2cc(N3CCNC3=O)nc(N3CCOCC3)n2)cn1 | 0.431 | – | logD [11]: 2.6
